{
  "source": "patent US20040014024A1",
  "about": "“Screening assay for antagonists of FGFR-mediated malignant cell transformation and tumor formation” (priority 1999, published 2004)",
  "system": "RCJ cells",
  "experiment": "Tumor formation in nude mice injected with RCJ cells, doxycycline in drinking water",
  "assay_type": "in vivo",
  "conditions": "doxycycline 25 μg/ml in drinking water, up to 60 days",
  "method": "6-8-Week old nude mice (BalbC/Nu) were injected subcutaneously with equivalent number of parental RCJ or L8 cells or FGFR3 expressing cell lines and were followed for tumor formation for up to 60 days after injections. Inhibition of FGFR expression in vivo was done by adding 25 μg/ml doxycycline into the drinking water of mice which had previously received the RCJ cell clones by injection. Nude mice were injected subcutaneously with equivalent numbers of parental RCJ cells (FIGS. 9 A-C, C2, squares) or wild type or mutant FGFR3 expressing RCJ cell lines (W11, circles in FIG. 9A, M15, triangles in FIG. 9A, W2, triangles in FIG. 9B, M16, circles in FIG. 9B) and tumor surface areas were evaluated for up to 60 days after injection (ordinates). […] Triangles, C2 (control) clone plus doxycycline, circles, W11 clone, filled squares, W11 clone plus doxycycline Doxycycline was used in animals because the former is a potent high affinity derivative of tetracycline. […] The inhibition of tumor formation of RCJ cells was highly correlated with the expression levels of FGFR3. In order to determine whether inhibition of tumor formation reflects the expression level of FGFR3, we have performed an assay where we tried to suppress the expression of FGFR3 in vivo by the addition of doxycycline to the drinking water of injected mice.",
  "data": [
    {"smiles": "C[C@H]1c2cccc(O)c2C(=O)C2=C(O)[C@]3(O)C(=O)C(C(N)=O)=C(O)[C@@H](N(C)C)[C@@H]3[C@@H](O)[C@@H]21", "note": "[doxycycline]", "values": [
      {"measurement": "effect on tumor formation, mice injected with the parental RCJ line (C2)", "result": "no significant effect"}
    ]}
  ]
}
